Assay results as given in US20250115569A1, “SULFONAMIDE COMPOUNDS FOR THE TREATMENT OF NEUROLOGICAL CONDITIONS” (LARIO THERAPEUTICS LIMITED, priority 2021, published 2025).

Tested on: Human Cav2.3 channel
Assay: Human Cav2.3 channel calcium-influx assay
Assay type: cell-based
Settings: Fluo8 fluorescence, HEK-293 T-Rex/Kir2.1/Cav2.3e cells, without pluronic acid
Description: HEK-293 T-Rex cells were transfected with pcDNA3.1-Kir2.1 to generate a stable cell line. After antibiotic selection, the obtained stable pools were analysed using FLIPR^TETRA (membrane potential assay), and a limiting dilution was performed and a HEK-293 T-Rex/Kir2.1 clone was selected. The clone was transfected with pcDNA3.1-Cav2.3e and pBud-Cav-β4-α2δ1 to generate a stable cell line where the Cav2.3e expression is inducible. After antibiotic selection, functional clone pool analysis and two successive limiting dilutions, the final clone underwent a qPCR analysis and a biophysical and pharmacological validation using patch-clamp.
A compound plate, containing 10 test compounds in eight-points dose response with n=4, was prepared. Test compounds dose response curves were prepared in automated fashion in 100% DMSO at CyBio Felix and starting from a stock solution in 100% DMSO; a defined volume was serially moved into destination wells pre-filled with the desired DMSO volume; stock solution concentration volumes were dependent on the final compounds concentrations to be tested and the final DMSO content used in the assay. For the assay test compounds dose response curves ranged from 30 μM and half log dilution with 0.3% final DMSO. In order to obtain the 8-points dose response curve all the concentrations were created by starting from a 10 mM DMSO stock solution and then moving 9.5 μL into a destination well pre-filled with 20.5 μL of 100% DMSO and repeating this step seven times. This initial step was done into 96 MTP plates, 10 compounds/plate. One 384 MTP was then reformatted to contain all the 10 compounds at 8 concentrations, quadruplicate data points. This so obtained 384 MTP compound plate served as source plate in a “mother to child” process with a CyBi®-Well dispenser in which 0.7 μL of compounds were moved into a destination plate pre-filled with 57.6 μL of Tyrode's buffer 0 mM K+, thus obtaining 4× concentrated compounds solution. In columns 1-2 and 23-24 the control wells were added. Both “source” compound plate and “destination” compound plate were barcoded and a relationship between the two plates was thus generated.
The day before the experiment, cells were detached by gentle wash with DPBS, followed by 5 min incubation at 37° C. with Trypsin solution. Detached cells were diluted with OptiMEM+Doxycycline at 0.2 μg/mL, counted and plated in Poly-D-Lysine coated black/clear bottom (15.000 c/well in 20 μl/well) by the use of a MATRIX WellMate dispenser. Plates were placed into a humidified incubator at 37° C. with 5% CO2 until the experimental day. 24 h after seeding 10 μL/well of 1.5× Fluo8 NW dye solution prepared in Tyrode's buffer 0 mM K* were added on top of the seeding medium. Cell plates were incubated for 40-60 min at RT in the dark. We then Injected off-line 10 μL/well of test compounds and controls 4× concentrated in Tyrode's Buffer 0 mM K+ with the CyBi®-Well instrument. Cell plates were incubated 3 minutes at RT. Finally, we injected 20 μL/well of 3× concentrated activator solution (K20-Na130-Ca2 buffer: 20 mM KCl, 130 mM NaCl, 2 mM CaCl2, 10 mM HEPES, 10 mM Glucose, final concentrations, prepared starting from “K0-Na150-Ca2” and “K150-Na0-Ca2” buffers) at FDSS7000EX instrument and read emitted fluorescence for 130 seconds.
Data analysis was performed with Genedata Screener® software and reported compounds activity as % effect in relation to the normalization standards. The Kinetic Response Value (KRV) is calculated as follows:
KRV=Maximal fluorescence recorded from second 5 to second 130 minus baseline fluorescence, computed as average from second 1 to second 2, of the kinetic trace. The KRV was normalized versus Neutral Controls and Inhibitor Controls in order to obtain the Activity[%] for each well. […] Therefore, the compound activity values were scaled (based on the two references) to a common range (two-point normalization). […]

Structure (SMILES) | Cav2.3 (pIC50)
CCN(C(c1ccc(F)cc1)C(F)(F)F)S(=O)(=O)C1CCCOC1 (centres unmarked) [Example 56, N-ethyl-N-(2,2,2-trifluoro-1-(4-fluorophenyl)ethyl)tetrahydro-2H-pyran-3-sulfonamide] | 6.92
CCN(C(c1ccc(F)cc1)C(F)(F)F)S(=O)(=O)c1cncnc1 (centres unmarked) [Example 57, N-ethyl-N-(2,2,2-trifluoro-1-(4-fluorophenyl)ethyl)pyrimidine-5-sulfonamide] | 6.96
CN(C(c1ccc(F)cc1)C(F)(F)F)S(=O)(=O)c1cncnc1 (centres unmarked) [Example 58, N-methyl-N-(2,2,2-trifluoro-1-(4-fluorophenyl)ethyl)pyrimidine-5-sulfonamide] | 6.35
CCN([C@@H](c1ccc(F)cc1)C(F)(F)F)S(=O)(=O)c1cncnc1 [Example 59, (S)—N-ethyl-N-(2,2,2-trifluoro-1-(4-fluorophenyl)ethyl)pyrimidine-5-sulfonamide] | 5.21
CCN(C(c1ccc(F)cc1)C(F)(F)F)S(=O)(=O)c1cncnc1 [Example 60, (R)—N-ethyl-N-(2,2,2-trifluoro-1-(4-fluorophenyl)ethyl)pyrimidine-5-sulfonamide] | 7.14
CCN(C(c1ccc(F)cc1)C(F)(F)F)S(=O)(=O)C1CCOCC1 (centres unmarked) [Example 61, N-ethyl-N-(2,2,2-trifluoro-1-(4-fluorophenyl)ethyl)tetrahydro-2H-pyran-4-sulfonamide] | 7.01
CCN([C@@H](c1ccc(F)cc1)C(F)(F)F)S(=O)(=O)C1CCOCC1 [Example 62, (S)—N-ethyl-N-(2,2,2-trifluoro-1-(4-fluorophenyl)ethyl)tetrahydro-2H-pyran-4-sulfonamide] | 5.20
CCN(C(c1cccc(OC)c1)C(F)(F)F)S(=O)(=O)c1cncc(C#N)c1 (centres unmarked) [Example 71, 5-Cyano-N-ethyl-N-(2,2,2-trifluoro-1-(3-methoxyphenyl)ethyl)pyridine-3-sulfonamide] | 6.80
CCN([C@H](c1cccc(OC)c1)C(F)(F)F)S(=O)(=O)c1cncc(C#N)c1 [Example 72, (R)-5-Cyano-N-ethyl-N-(2,2,2-trifluoro-1-(3-methoxyphenyl)ethyl)pyridine-3-sulfonamide] | 6.20
CCN([C@@H](c1cccc(OC)c1)C(F)(F)F)S(=O)(=O)c1cncc(C#N)c1 [Example 73, (S)-5-Cyano-N-ethyl-N-(2,2,2-trifluoro-1-(3-methoxyphenyl)ethyl)pyridine-3-sulfonamide] | 5.50
Cc1ncc(S(=O)(=O)N(C)C(c2ccc(F)cc2)C(F)(F)F)cn1 (centres unmarked) [Example 74, N,2-dimethyl-N-(2,2,2-trifluoro-1-(4-fluorophenyl)ethyl)pyrimidine-5-sulfonamide] | 5.83
CCN(C(c1ccc(F)cc1)C(F)(F)F)S(=O)(=O)c1cnc(C)nc1 (centres unmarked) [Example 75, N-ethyl-2-methyl-N-(2,2,2-trifluoro-1-(4-fluorophenyl)ethyl)pyrimidine-5-sulfonamide] | 5.94
CCN([C@@H](c1ccc(F)cc1)C(F)(F)F)S(=O)(=O)c1cnc(C)nc1 [Example 76, (S)—N-ethyl-2-methyl-N-(2,2,2-trifluoro-1-(4-fluorophenyl)ethyl)pyrimidine-5-sulfonamide] | 5.31

Next, values leading:

Cav2.3 (pIC50) | Structure (SMILES)
5.69 | Cc1ncc(S(=O)(=O)N(C)[C@H](c2ccc(F)cc2)C(F)(F)F)cn1 [Example 78, (R)—N,2-dimethyl-N-(2,2,2-trifluoro-1-(4-fluorophenyl)ethyl)pyrimidine-5-sulfonamide]
4.99 | Cc1ncc(S(=O)(=O)N(C)[C@@H](c2ccc(F)cc2)C(F)(F)F)cn1 [Example 79, (S)—N,2-dimethyl-N-(2,2,2-trifluoro-1-(4-fluorophenyl)ethyl)pyrimidine-5-sulfonamide]
6.34 | CCN(C(c1cccc(C(F)(F)F)c1)C(F)(F)F)S(=O)(=O)c1cncc(C#N)c1 (centres unmarked) [Example 85, 5-Cyano-N-ethyl-N-(2,2,2-trifluoro-1-(3-(trifluoromethyl)phenyl)ethyl)pyridine-3-sulfonamide]
5.95 | CCN(C(c1ccccc1C)C(F)(F)F)S(=O)(=O)c1cncc(C#N)c1 (centres unmarked) [Example 86, 5-cyano-N-ethyl-N-(2,2,2-trifluoro-1-(o-tolyl)ethyl)pyridine-3-sulfonamide]
5.50 | CCN(C(c1ccc(F)cc1)C(F)(F)F)S(=O)(=O)c1ccc(C2=CCOCC2)s1 (centres unmarked) [Example 87, 5-(3,6-Dihydro-2H-pyran-4-yl)-N-ethyl-N-(2,2,2-trifluoro-1-(4-fluorophenyl)ethyl)thiophene-2-sulfonamide]
5.60 | CCN(C(c1ccc(F)cc1)C(F)(F)F)S(=O)(=O)c1ccc(C2CCOCC2)s1 (centres unmarked) [Example 88, N-ethyl-5-(tetrahydro-2H-pyran-4-yl)-N-(2,2,2-trifluoro-1-(4-fluorophenyl)ethyl)thiophene-2-sulfonamide]
5.68 | CCN(C(c1ccc(F)cc1)C(F)(F)F)S(=O)(=O)c1ccc(N2CCOCC2)s1 (centres unmarked) [Example 89, N-ethyl-5-morpholino-N-(2,2,2-trifluoro-1-(4-fluorophenyl)ethyl)thiophene-2-sulfonamide]
6.20 | CCN([C@H](c1ccc(F)cc1)C(F)(F)F)S(=O)(=O)c1ccc(N2CCOCC2)s1 [Example 90, (R)—N-ethyl-5-morpholino-N-(2,2,2-trifluoro-1-(4-fluorophenyl)ethyl)thiophene-2-sulfonamide]
5.37 | CCN([C@@H](c1ccc(F)cc1)C(F)(F)F)S(=O)(=O)c1ccc(N2CCOCC2)s1 [Example 91, (S)—N-ethyl-5-morpholino-N-(2,2,2-trifluoro-1-(4-fluorophenyl)ethyl)thiophene-2-sulfonamide]
6.53 | CCN(C(c1ccc(F)cc1)C(F)(F)F)S(=O)(=O)c1cncc(N2CCOCC2)c1 (centres unmarked) [Example 93, N-ethyl-5-morpholino-N-(2,2,2-trifluoro-1-(4-fluorophenyl)ethyl)pyridine-3-sulfonamide]
5.85 | CCN(C(c1ccc(F)cc1)C(F)(F)F)S(=O)(=O)c1cncc(N2CCCC2)c1 (centres unmarked) [Example 94, N-ethyl-5-(pyrrolidin-1-yl)-N-(2,2,2-trifluoro-1-(4-fluorophenyl)ethyl)pyridine-3-sulfonamide]
5.62 | CCN([C@@H](c1ccc(F)cc1)C(F)(F)F)S(=O)(=O)c1cncc(N2CCOCC2)c1 [Example 95, (S)—N-ethyl-5-morpholino-N-(2,2,2-trifluoro-1-(4-fluorophenyl)ethyl)pyridine-3-sulfonamide]
5.22 | CCN([C@@H](c1ccc(F)cc1)C(F)(F)F)S(=O)(=O)c1cncc(N2CCCC2)c1 [Example 97, (S)—N-ethyl-5-(pyrrolidin-1-yl)-N-(2,2,2-trifluoro-1-(4-fluorophenyl)ethyl)pyridine-3-sulfonamide]
5.80 | CCN([C@H](c1ccc(F)cc1)C(F)(F)F)S(=O)(=O)c1cncc(N2CCCC2)c1 [Example 98, (R)—N-ethyl-5-(pyrrolidin-1-yl)-N-(2,2,2-trifluoro-1-(4-fluorophenyl)ethyl)pyridine-3-sulfonamide]
6.50 | CCN(C(c1ccc(F)cc1)C(F)(F)F)S(=O)(=O)c1ccn(C)c(=O)c1 (centres unmarked) [Example 103, N-ethyl-1-methyl-2-oxo-N-(2,2,2-trifluoro-1-(4-fluorophenyl)ethyl)-1,2-dihydropyridine-4-sulfonamide]
7.24 | CCN(C(c1ccc(C)cc1)C(F)(F)F)S(=O)(=O)c1cncc(C#N)c1 (centres unmarked) [Example 104, 5-Cyano-N-ethyl-N-(2,2,2-trifluoro-1-(p-tolyl)ethyl)pyridine-3-sulfonamide]
